Legend:
[1] = test system: primary human NSCLC tumors (dissociated cells); assay: TCA: Compound B-1 with radiation (1-16 Gy), primary NSCLC tumors; assay type: cell-based; design: Average Bliss score: scale not given here
Protocol: (§1) In both studies, cell viability was assessed after 6 days in culture. Statistical analysis of the combination matrix was performed to assess whether synergy, additivity, or antagonism of the combination treatments were observed.
(§2) Materials: Primary patient samples (See Tables 16 and 17, below) were excised from mice when they reached 500 mg to 1000 mg in size and processed immediately, or after overnight shipment. Tumors were serially passaged by subcutaneous implantation of 50 mg to 150 mg fragments into the flanks of immunocompromised (nude) mice. Tumors were used within the first 5 or 7 passages.
(§3) Tumor Chemosensitivity Assay (TCA): Primary tumor samples were grown and serially passaged in immunocompromised mice. Tumors were mechanically dissociated into small fragments (1 mm to 2 mm) with scalpels in phosphate buffered saline (PBS or RPMI) and centrifuged at 200×g for 5 minutes at room temperature in 50 mL centrifuge tubes. Samples were resuspended in 10 mL of cell dissociation reagent and enzymatically digested with mechanical agitation for 1 to 3 hours at 37° C., 5% CO2 to a single cell suspension. Ten mL of complete RPMI-1640 media was added to the cell mixture and pipetted up and down 4 to 5 times. The mixture was then passed through a 70 μm or 100 μm mesh strainer to remove undigested tumor. The filtrate was then centrifuged 200×g for 5 minutes at room temperature and resuspended in 20 mL complete RPMI-1640. This cell suspension was slowly layered onto 20 mL of room temperature Histopaque and centrifuged at 400×g for 15 minutes at room temperature without a brake. The interface was transferred to a new 50 mL centrifuge tube and 15 mL of complete RPMI-1640 was added. This suspension was centrifuged at 200×g at room temperature, and the resulting pellet was resuspended in 10 mL of complete PC-1 media, except for pancreatic tumors in which case Pancreatic Medium was used. Cells were diluted in Trypan blue, and viable cells that excluded the dye were counted. Only the larger, tumor cells were included in the cell count. Cells were diluted in complete PC-1 or Pancreatic media, as appropriate for the cells, and were plated at 15,000 to 20,000 cells per well in 100-135 μL in ultra-low attachment U-bottom plates.
(§4) Compound Addition: For these studies, a 10 mM stock of the DNA-PK inhibitor (Compound B-1 or Compound B-2) was made in DMSO and used to add to cells from most tumors with HP D300 Digital Dispenser (Tecan US, Morrisville, NC, USA), or diluted into the appropriate media (PC-1 or pancreatic media) as a 5-10× stock and added to cells (OVX001 and ENX001, 005). PC-1, pancreatic media, and chemotherapeutics were also added so that final well volume was 150 μL. Doxorubicin was made as DMSO stock of 1 or 10 mM and added to cells for most tumors with HP D300 Digital Dispenser, or diluted into PC-1 as 5-10× stock and added to cells (OVX001 and ENX001, 005). Cisplatin (cis-diammine platinum(II), dichloride) was prepared fresh to 10 mM in warm (60° C.) distilled water and diluted in PC-1 as a 5-10× stock. […] Different starting concentrations, dose ranges, and number of doses were used for each experiment based on the response data available at the time.
In radiation experiments, a range of 1-16 Gy was administered using a cesium-137 source (GammaCell 40 Exactor, MDS Nordion, Ontario, Canada). These experiments were designed as a 6×5 matrix in triplicate. Each point of a 4-point concentration range of 0.15, 0.73, 1.5 and 2.2 μM Compound B-1 plus a ‘no treatment’ control in triplicate were added to 6 individual plates. The matrix was then assembled by exposure of each plate to 0, 1, 2, 4, 8, or 16 Gy of radiation.
Cells were cultured at 37° C., 5% CO2, 95% air and 100% relative humidity.
Viability Determination: Six days after compound addition, 75 μL of CellTiterGlo (prepared according to manufacturer's protocol) was added to each well of the compound titration plates. […]

[2] = test system: primary human tumors (NSCLC, pancreatic, gastric, esophageal); assay: TCA: Compound B-1 with bleomycin, primary tumors; assay type: cell-based; design: Average Bliss score: scale not given here
Protocol: as §1, §2, §3, §4
For bleomycin experiments, combinations with Compound B-1 at all concentrations were run in triplicate. A 6×3 matrix was designed on one plate, consisting of a 2-point concentration range of 0.73 μM and 2.2 μM Compound B-1 plus no treatment control, in 3 columns each of 6 wells. Bleomycin (plus ‘no treatment’ control) was added to 9 wells in rows of this plate. Similar 6×3 matrices were set up for additional agents with different starting concentrations for compound dilutions. For cisplatin experiments the starting concentration was 30 μM which was diluted 1:3. […] For doxorubicin hydrochloride experiments the starting concentration was 5 μM doxorubicin which was diluted 1:3. For gemcitabine experiments the starting concentration was 5 μM gemcitabine which was diluted 1:3. […]

Compound: CNC(=O)c1ccnc2c([C@H](C)CNc3cc(-c4cnc(C)nc4)ncn3)cccc12 [Compound B-1]
- tumors that showed synergy or additivity ([1]; 9 NSCLC tumors): 100%
- tumors that showed strong synergy ([1]; three of 9 NSCLC tumors): 33%
- Average Bliss score ([1]; tumor OD26131, Lung (NSCLC)): 12
- Synergy/Additivity/Antagonism ([1]; tumor OD26131, Lung (NSCLC)): Strongly Synergistic (greater than 10 are considered strongly synergistic)
- Average Bliss score ([1]; tumor OD26749, Lung (NSCLC)): 7
- Synergy/Additivity/Antagonism ([1]; tumor OD26749, Lung (NSCLC)): Synergistic (greater than 5 are considered synergistic)
- Average Bliss score ([1]; tumor OD29498, Lung (NSCLC)): 2
- Synergy/Additivity/Antagonism ([1]; tumor OD29498, Lung (NSCLC)): Additive (Values between 5 and −5 are considered additive)
- Average Bliss score ([1]; tumor OD33117, Lung (NSCLC)): 9
- Synergy/Additivity/Antagonism ([1]; tumor OD33117, Lung (NSCLC)): Synergistic (greater than 5 are considered synergistic)
- Average Bliss score ([1]; tumor OD33966, Lung (NSCLC)): 8
- Synergy/Additivity/Antagonism ([1]; tumor OD33966, Lung (NSCLC)): Synergistic (greater than 5 are considered synergistic)
- Average Bliss score ([1]; tumor OD35982, Lung (NSCLC)): 5
- Synergy/Additivity/Antagonism ([1]; tumor OD35982, Lung (NSCLC)): Additive (Values between 5 and −5 are considered additive)
- Average Bliss score ([1]; tumor OD36088, Lung (NSCLC)): 14
- Synergy/Additivity/Antagonism ([1]; tumor OD36088, Lung (NSCLC)): Strongly Synergistic (greater than 10 are considered strongly synergistic)
- Average Bliss score ([1]; tumor TS110310, Lung (NSCLC)): 16
- Synergy/Additivity/Antagonism ([1]; tumor TS110310, Lung (NSCLC)): Strongly Synergistic (greater than 10 are considered strongly synergistic)
- Average Bliss score ([1]; tumor YAS111611, Lung (NSCLC)): 1
- Synergy/Additivity/Antagonism ([1]; tumor YAS111611, Lung (NSCLC)): Additive (Values between 5 and −5 are considered additive)
- number of tumors that showed synergy or additivity ([2]; of twenty tumors assessed): 20 tumors
- tumors that showed strong synergy ([2]; six of 20 tumors): 30%
- Average Bliss score ([2]; tumor ESX005, Esophageal): 6
- Synergy/Additivity/Antagonism ([2]; tumor ESX005, Esophageal): Synergistic (greater than 5 are considered synergistic)
- Average Bliss score ([2]; tumor ESX008, Esophageal): 7
- Synergy/Additivity/Antagonism ([2]; tumor ESX008, Esophageal): Synergistic (greater than 5 are considered synergistic)
- Average Bliss score ([2]; tumor GAX001, Gastric): 14
- Synergy/Additivity/Antagonism ([2]; tumor GAX001, Gastric): Strongly Synergistic (greater than 10 are considered strongly synergistic)
- Average Bliss score ([2]; tumor GAX007, Gastric): 5
- Synergy/Additivity/Antagonism ([2]; tumor GAX007, Gastric): Synergistic (greater than 5 are considered synergistic)
- Average Bliss score ([2]; tumor GAX027, Gastric): 11
- Synergy/Additivity/Antagonism ([2]; tumor GAX027, Gastric): Strongly Synergistic (greater than 10 are considered strongly synergistic)
- Average Bliss score ([2]; tumor OD25982, Lung (NSCLC)): 4
- Synergy/Additivity/Antagonism ([2]; tumor OD25982, Lung (NSCLC)): Additive (Values between 5 and −5 are considered additive)
- Average Bliss score ([2]; tumor OD26131, Lung (NSCLC)): 9
- Synergy/Additivity/Antagonism ([2]; tumor OD26131, Lung (NSCLC)): Synergistic (greater than 5 are considered synergistic)
- Average Bliss score ([2]; tumor OD26749, Lung (NSCLC)): 10
- Synergy/Additivity/Antagonism ([2]; tumor OD26749, Lung (NSCLC)): Strongly Synergistic (greater than 10 are considered strongly synergistic)
- Average Bliss score ([2]; tumor OD29498, Lung (NSCLC)): 3
- Synergy/Additivity/Antagonism ([2]; tumor OD29498, Lung (NSCLC)): Additive (Values between 5 and −5 are considered additive)
- Average Bliss score ([2]; tumor OD33117, Lung (NSCLC)): 9
- Synergy/Additivity/Antagonism ([2]; tumor OD33117, Lung (NSCLC)): Synergistic (greater than 5 are considered synergistic)
- Average Bliss score ([2]; tumor OD33966, Lung (NSCLC)): 3
- Synergy/Additivity/Antagonism ([2]; tumor OD33966, Lung (NSCLC)): Additive (Values between 5 and −5 are considered additive)
- Average Bliss score ([2]; tumor OD36088, Lung (NSCLC)): 14
- Synergy/Additivity/Antagonism ([2]; tumor OD36088, Lung (NSCLC)): Strongly Synergistic (greater than 10 are considered strongly synergistic)
- Average Bliss score ([2]; tumor P110323, Pancreatic): 10
- Synergy/Additivity/Antagonism ([2]; tumor P110323, Pancreatic): Strongly Synergistic (greater than 10 are considered strongly synergistic)
- Average Bliss score ([2]; tumor P110325, Pancreatic): 0
- Synergy/Additivity/Antagonism ([2]; tumor P110325, Pancreatic): Additive (Values between 5 and −5 are considered additive)
- Average Bliss score ([2]; tumor P110408, Pancreatic): 7
- Synergy/Additivity/Antagonism ([2]; tumor P110408, Pancreatic): Synergistic (greater than 5 are considered synergistic)
- Average Bliss score ([2]; tumor P110413, Pancreatic): 6
- Synergy/Additivity/Antagonism ([2]; tumor P110413, Pancreatic): Synergistic (greater than 5 are considered synergistic)
- Average Bliss score ([2]; tumor P110504, Pancreatic): 8
- Synergy/Additivity/Antagonism ([2]; tumor P110504, Pancreatic): Synergistic (greater than 5 are considered synergistic)
- Average Bliss score ([2]; tumor P110603, Pancreatic): 14
- Synergy/Additivity/Antagonism ([2]; tumor P110603, Pancreatic): Strongly Synergistic (greater than 10 are considered strongly synergistic)
- Average Bliss score ([2]; tumor TS110310, Lung (NSCLC)): 2
- Synergy/Additivity/Antagonism ([2]; tumor TS110310, Lung (NSCLC)): Additive (Values between 5 and −5 are considered additive)
- Average Bliss score ([2]; tumor YAS111611, Lung (NSCLC)): 6
- Synergy/Additivity/Antagonism ([2]; tumor YAS111611, Lung (NSCLC)): Synergistic (greater than 5 are considered synergistic)
